From the NIST ThermoML archive (doi:10.1016/j.jct.2017.07.004)

Assay: xn = mol fraction of the nth substance listed
Details: 100 kPa, Liquid; for viscosity: Concentric cylinders viscometry; for mass density: Vibrating tube method

CCC=O [propanal] + CCCC(C)O
Details | mass density [kg/m3] | viscosity [mPa·s]
293.15 K, x1 = 0.0809 | 811 | 3.75
293.15 K, x1 = 0.1599 | 813.1 | 3.51
293.15 K, x1 = 0.2402 | 814.7 | 3.25
293.15 K, x1 = 0.35 | 816.4 | 2.87
293.15 K, x1 = 0.44 | 817 | 2.54
293.15 K, x1 = 0.5599 | 816.7 | 2.08
293.15 K, x1 = 0.65 | 815.8 | 1.73
293.15 K, x1 = 0.74 | 814.1 | 1.38
293.15 K, x1 = 0.85 | 810.6 | 0.94
293.15 K, x1 = 0.94 | 806.5 | 0.57
293.15 K, x1 = 1 | 802.4 | 0.34
298.15 K, x1 = 0.0809 | 806.6 | 3.11
298.15 K, x1 = 0.1599 | 808 | 2.91
298.15 K, x1 = 0.2402 | 809.2 | 2.71
298.15 K, x1 = 0.35 | 809.9 | 2.42
298.15 K, x1 = 0.44 | 810.2 | 2.15
298.15 K, x1 = 0.5599 | 809.5 | 1.78
298.15 K, x1 = 0.65 | 808.4 | 1.49
298.15 K, x1 = 0.74 | 806.6 | 1.2
298.15 K, x1 = 0.85 | 803.4 | 0.83
298.15 K, x1 = 0.94 | 799.8 | 0.52
298.15 K, x1 = 1 | 796.2 | 0.33
303.15 K, x1 = 0.0809 | 802.1 | 2.64
303.15 K, x1 = 0.1599 | 803.2 | 2.47
303.15 K, x1 = 0.2402 | 804 | 2.29
303.15 K, x1 = 0.35 | 804.5 | 2.04
303.15 K, x1 = 0.44 | 804.4 | 1.82
303.15 K, x1 = 0.5599 | 803.5 | 1.52
303.15 K, x1 = 0.65 | 802.2 | 1.29
303.15 K, x1 = 0.74 | 800.4 | 1.04
303.15 K, x1 = 0.85 | 797.1 | 0.73
303.15 K, x1 = 0.94 | 793.6 | 0.47
303.15 K, x1 = 1 | 790.3 | 0.31
308.15 K, x1 = 0.0809 | 797.7 | 2.24
308.15 K, x1 = 0.1599 | 798.5 | 2.11
308.15 K, x1 = 0.2402 | 798.9 | 1.96
308.15 K, x1 = 0.35 | 799 | 1.74
308.15 K, x1 = 0.44 | 798.7 | 1.55
308.15 K, x1 = 0.5599 | 797.5 | 1.29
308.15 K, x1 = 0.65 | 796.1 | 1.1
308.15 K, x1 = 0.74 | 794.2 | 0.89
308.15 K, x1 = 0.85 | 791 | 0.64
308.15 K, x1 = 0.94 | 787.6 | 0.43
308.15 K, x1 = 1 | 784.5 | 0.3
313.15 K, x1 = 0.0809 | 793.1 | 1.88
313.15 K, x1 = 0.1599 | 793.6 | 1.76
313.15 K, x1 = 0.2402 | 793.9 | 1.63
313.15 K, x1 = 0.35 | 793.8 | 1.45
313.15 K, x1 = 0.44 | 793.3 | 1.3
313.15 K, x1 = 0.5599 | 792 | 1.09
313.15 K, x1 = 0.65 | 790.5 | 0.92
313.15 K, x1 = 0.74 | 788.5 | 0.75
313.15 K, x1 = 0.85 | 785.3 | 0.56
313.15 K, x1 = 0.94 | 781.9 | 0.39
313.15 K, x1 = 1 | 779 | 0.28
318.15 K, x1 = 0.0809 | 788.6 | 1.55
318.15 K, x1 = 0.1599 | 788.9 | 1.45
318.15 K, x1 = 0.2402 | 789 | 1.34
318.15 K, x1 = 0.35 | 788.7 | 1.19
318.15 K, x1 = 0.44 | 788.1 | 1.07
318.15 K, x1 = 0.5599 | 786.5 | 0.9
318.15 K, x1 = 0.65 | 785 | 0.77
318.15 K, x1 = 0.74 | 782.9 | 0.64
318.15 K, x1 = 0.85 | 779.6 | 0.49
318.15 K, x1 = 0.94 | 776.2 | 0.35
318.15 K, x1 = 1 | 773.5 | 0.27
323.15 K, x1 = 0.0809 | 783.9 | 1.29
323.15 K, x1 = 0.1599 | 783.9 | 1.2
323.15 K, x1 = 0.2402 | 783.5 | 1.1
323.15 K, x1 = 0.35 | 782.7 | 0.97
323.15 K, x1 = 0.44 | 781.8 | 0.87
323.15 K, x1 = 0.5599 | 780.1 | 0.74
323.15 K, x1 = 0.65 | 778.4 | 0.64
323.15 K, x1 = 0.74 | 776.4 | 0.54
323.15 K, x1 = 0.85 | 773.4 | 0.42
323.15 K, x1 = 0.94 | 770.6 | 0.32
323.15 K, x1 = 1 | 768.2 | 0.25
